Test system: miR-323a-5p
Test: miR-323a-5p expression levels by qPCR after transfection
Type: cell-based
Details: SK-N-BE(2), miRNA 50 nM
Description: For in vitro experiments, SK-N-BE(2) neuroblastoma cells were reverse transfected with the addition of the QS-sRNA complexes to complete cell culture medium (IMDM, 10% heat-inactivated foetal bovine serum (FBS) South America Premium (Biowest, Nuaillé, France)) without antibiotics. After overnight (o/n) incubation media was changed for IMDM supplemented with 10% FBS and antibiotics.
Total RNA including small RNAs was extracted using the miRNeasy Mini Kit (Qiagen, Las Matas, Spain). mRNAs were reverse transcribed (0.5 μg total RNA) using Taqman RT kit (#4366596; Applied Biosystems, Thermo Fisher Scientific), and mature miRNA expression analysis was quantified using Taqman microRNA assays (#4440047; Applied Biosystems, Thermo Fisher Scientific) following manufacturer's recommendations. cDNA was quantified by standard RT-qPCR methodology using 2× Power SYBR Green Master Mix (Applied Biosystems, Thermo Fisher Scientific) using the ABI700SDS equipment. […] The relative fold-change Relative quantification of gene expression was performed with a comparative 2^(−ΔΔCT) method (Livak K J, Schmittgen T D. Analysis of relative gene expression data using real-time quantitative PCR and the 2(−Delta Delta C(T)) method. Methods 2001; 25: 402-408).
The RNU44 is as a housekeeping gene, commonly used to normalize the smallRNA content in the analyzed samples. […]

miRNA naked: miRIDIAN hsa-miR-323a-5p mimic AGGUGGUCCGUGGCGCGUUCGC (SEQ ID NO: 1), not complexed (listed as RNA, chemistry not given here)
miR-323a-5p expression levels: could not increase
